Measurements from patent US8648092B2, “Imidazo[1,2-a]pyridine derivatives: preparation and pharmaceutical applications” (MEI Pharma, priority 2005, dated 2014).

Tests used:
[1] = target: HDAC1 enzyme (recombinant GST-HDAC1) (Homo sapiens (Human), UniProt Q13547); assay: In vitro HDAC assay for determination of IC50 values (BIOMOL fluorescent-based HDAC activity assay); type: biochemical; conditions: Flur de lys substrate, 2 h room temperature, read-out: IC50 (HDAC 1)
Experimental: Biological Testing and Enzyme Assays Recombinant GST-HDAC1 Protein Expression and Purification
Human cDNA library was prepared using cultured SW620 cells. Amplification of human HDAC1 coding region from this cDNA library was cloned separately into the baculovirus expression pDEST20 vector (GATEWAY Cloning Technology, Invitrogen Pte Ltd). The pDEST20-HDAC1 construct was confirmed by DNA sequencing. Recombinant baculovirus was prepared using the Bac-To-Bac method following the manufacturer's instruction (Invitrogen Pte Ltd).
Expression of GST-HDAC1 was done by infecting SF9 cells (Invitrogen Pte Ltd) with pDEST20-HDAC1 baculovirus at MOI=1 for 48 h. Soluble cell lysate was incubated with pre-equilibrated Glutathione Sepharose 4B beads (Amersham) at 4° C. for 2 h. The beads were washed with PBS buffer for 3 times. The GST-HDAC1 protein was eluted by elution buffer containing 50 mM Tris, pH8.0, 150 mM NaCl, 1% Triton X-100 and 10 mM or 20 mM reduced Glutathione. The purified GST-HDAC1 protein was dialyzed with HDAC storage buffer containing 10 mM Tris, pH7.5, 100 mM NaCl and 3 mM MgCl2. 20% Glycerol was added to purified GST-HDAC1 protein before storage at −80° C.
In Vitro HDAC Assay for Determination of IC50 Values
The assay has been carried out in 96 well format and the BIOMOL fluorescent-based HDAC activity assay has been applied. […] Flur de lys Developer was added and the reaction was incubated for 10 min. Briefly, deacetylation of the substrate sensitizes it to the developer, which then generates a fluorophore. The fluorophore is excited with 360 nm light and the emitted light (460 nm) is detected on a fluorometric plate reader (Tecan Ultra Microplate detection system, Tecan Group Ltd.).
The analytical software, Prism 4.0 (GraphPad Software Inc) has been used to generate IC50 from a series of data.

[2] = tested on: Colo205 cells; assay: Cell-based proliferation assay for determination of GI50 values (CyQUANT); parameters: species or system human; conditions: Homo sapiens, COLO 205, 96 h treatment
Experimental: Cell-Based Proliferation Assay for Determination of GI50 Values
Human cancer cell lines (e.g. Colo205) were obtained from ATCC. Colo205 cells were cultivated in RPMI 1640 containing 2 mM L-Glutamine, 5% FBS, 1.0 mM Na Pyruvate. Colo205 cells were seeded in 96-wells plate at 5000 cells per well. The plates were incubated at 37° C., 5% CO2, for 24 h. Cells were treated with compounds at various concentrations for 96 h. Cell growth was then monitored using CyQUANT® cell proliferation assay (Invitrogen Pte Ltd). Dose response curves were plotted to determine GI50 values for the compounds using XL-fit (ID Business Solution, Emeryville, Calif.). GI50 is defined as the concentration of compound required for 50% inhibition of cell growth.
The cellular or growth inhibition activity results of representative compounds are shown in Table 4 below (unit in the table is micromolar).

HDAC1 enzyme (recombinant GST-HDAC1), sequence (Q13547 whole entry): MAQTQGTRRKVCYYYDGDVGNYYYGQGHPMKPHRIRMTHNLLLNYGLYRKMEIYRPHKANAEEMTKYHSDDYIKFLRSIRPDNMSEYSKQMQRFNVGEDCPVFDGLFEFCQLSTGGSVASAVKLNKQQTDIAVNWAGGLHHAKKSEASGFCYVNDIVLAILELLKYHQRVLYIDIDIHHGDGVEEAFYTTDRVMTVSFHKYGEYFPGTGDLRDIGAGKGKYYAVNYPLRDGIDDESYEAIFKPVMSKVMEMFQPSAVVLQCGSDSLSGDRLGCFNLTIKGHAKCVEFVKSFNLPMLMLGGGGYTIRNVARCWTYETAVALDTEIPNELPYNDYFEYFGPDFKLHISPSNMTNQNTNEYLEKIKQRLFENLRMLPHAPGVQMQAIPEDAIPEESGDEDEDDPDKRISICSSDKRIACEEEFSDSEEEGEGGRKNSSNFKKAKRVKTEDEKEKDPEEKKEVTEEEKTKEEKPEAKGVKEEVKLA

Compound	IC50 [1] [µM]	GI50 [2] [µM]
CCCCCCc1nc2cc(/C=C/C(=O)NO)ccn2c1NCCC(=O)NCCN(C)C [Compound 20, 3-{3-[2-(2-Dimethylamino-ethylcarbamoyl)-ethylamino]-2-hexyl-imidazo[1,2-a]pyridin-7-yl}-N-hydroxy-acrylamide]	0.099	28
CCCCCCc1nc2cc(/C=C/C(=O)NO)ccn2c1NCCC(=O)NCCCC [Compound 21, 3-[3-(2-Butylcarbamoyl-ethylamino)-2-hexyl-imidazo[1,2-a]pyridin-7-yl]-N-hydroxy-acrylamide]	0.13	13
CCCCCCc1nc2cc(C=CC(=O)NO)ccn2c1NCCC(=O)NC(C)(C)C [Compound 22, 3-[3-(2-tert-Butylcarbamoyl-ethylamino)-2-hexyl-imidazo[1,2-a]pyridin-7-yl]-N-hydroxy-acrylamide]	0.14	19
CCCCCCc1nc2cc(/C=C/C(=O)NO)ccn2c1NCCC(=O)NCC(F)(F)F [Compound 23, 3-{2-Hexyl-3-[2-(2,2,2-trifluoro-ethylcarbamoyl)-ethylamino]-imidazo[1,2-a]pyridin-7-yl}-N-hydroxy-acrylamide]	0.16	15
CCCCCCc1nc2cc(/C=C/C(=O)NO)ccn2c1NCCC(=O)NCCOC [Compound 24, 3-{2-Hexyl-3-[2-(2-methoxy-ethylcarbamoyl)-ethylamino]-imidazo[1,2-a]pyridin-7-yl}-N-hydroxy-acrylamide]	0.13	40
CCCCCCc1nc2cc(/C=C/C(=O)NO)ccn2c1NCCC(=O)NCCSC [Compound 25, 3-{2-Hexyl-3-[2-(2-methylsulfanyl-ethylcarbamoyl)-ethylamino]-imidazo[1,2-a]pyridin-7-yl}-N-hydroxy-acrylamide]	0.073	2.1
C#CCNC(=O)CCNc1c(CCCCCC)nc2cc(/C=C/C(=O)NO)ccn12 [Compound 26, 3-[2-Hexyl-3-(2-prop-2-ynylcarbamoyl-ethylamino)-imidazo[1,2-a]pyridin-7-yl]-N-hydroxy-acrylamide]	0.14	7.9
CCCCCCc1nc2cc(/C=C/C(=O)NO)ccn2c1NCCC(=O)NC(CO)C(C)C (centres unmarked) [Compound 27, 3-{2-Hexyl-3-[2-(1-hydroxymethyl-2-methyl-propylcarbamoyl)-ethylamino]-imidazo[1,2-a]pyridin-7-yl}-N-hydroxy-acrylamide]	0.18	8.5
CCCCCCc1nc2cc(/C=C/C(=O)NO)ccn2c1NCCC(=O)NCCN(CC)CC [Compound 28, 3-{3-[2-(2-Diethylamino-ethylcarbamoyl)-ethylamino]-2-hexyl-imidazo[1,2-a]pyridin-7-yl}-N-hydroxy-acrylamide]	0.11	7.3
CCCCCCc1nc2cc(/C=C/C(=O)NO)ccn2c1NCCC(=O)NCC [Compound 29, 3-[3-(2-Ethylcarbamoyl-ethylamino)-2-hexyl-imidazo[1,2-a]pyridin-7-yl]-N-hydroxy-acrylamide]	0.38	2.1
CCCCCCc1nc2cc(/C=C/C(=O)NO)ccn2c1NCCC(=O)N(C)C [Compound 30, 3-[3-(2-Dimethylcarbamoyl-ethylamino)-2-hexyl-imidazo[1,2-a]pyridin-7-yl]-N-hydroxy-acrylamide]	0.88	3.9
CCCCCCc1nc2cc(/C=C/C(=O)NO)ccn2c1NCCC(=O)N(C)CCN(C)C [Compound 32, 3-(3-{2-[(2-Dimethylamino-ethyl)-methyl-carbamoyl]-ethylamino}-2-hexyl-imidazo[1,2a]pyridin-7-yl)-N-hydroxy-acrylamide]	0.24	2.8
CCCCCCc1nc2cc(/C=C/C(=O)NO)ccn2c1NCCC(=O)N(CCC)CCO [Compound 33, 3-(2-Hexyl-3-{2-[(2-hydroxy-ethyl)-propyl-carbamoyl]-ethylamino}-imidazo[1,2-a]pyridin-7-yl)-N-hydroxy-acrylamide]	0.83	27
O=C(/C=C/c1ccn2cc(-c3ccccc3)nc2c1)NO [Compound 34, N-Hydroxy-3-(2-phenyl-imidazo[1,2-a]pyridin-7-yl)-acrylamide]	0.87	42
CCCCCCc1nc2cc(/C=C/C(=O)NO)ccn2c1NCCC(=O)NCC(C)(C)CN(C)C [Compound 35, 3-{3-[2-(3-Dimethylamino-2,2-dimethyl-propylcarbamoyl)-ethylamino]-2-hexyl-imidazo[1,2-a]pyridin-7-yl}-N-hydroxy-acrylamide]	0.14	9.3
CCCCCCc1nc2cc(/C=C/C(=O)NO)ccn2c1NCCC(=O)NC [Compound 36, 3-[2-Hexyl-3-(2-methylcarbamoyl-ethylamino)-imidazo[1,2-a]pyridin-7-yl]-N-hydroxy-acrylamide]	0.39	14
CCCCCCc1nc2cc(/C=C/C(=O)NO)ccn2c1NCCC(=O)N(C)C(C)C [Compound 37, 3-{2-Hexyl-3-[2-(isopropyl-methyl-carbamoyl)-ethylamino]-imidazo[1,2-a]pyridin-7-yl}-N-hydroxy-acrylamide]	0.59	5.3
CCCCCCc1nc2cc(/C=C/C(=O)NO)ccn2c1NCCC(=O)N(CCOC)C(C)C [Compound 38, 3-(2-Hexyl-3-{2-[isopropyl-(2-methoxy-ethyl)-carbamoyl]-ethylamino}-imidazo[1,2-a]pyridin-7-yl)-N-hydroxy-acrylamide]	0.36	3.5
Cc1cn2ccc(/C=C/C(=O)NO)cc2n1 [Compound 41, N-Hydroxy-3-(2-methyl-imidazo[1,2-a]pyridin-7-yl)-acrylamide]	1.3	2.5
CCCCNCc1c(C)nc2cc(/C=C/C(=O)NO)ccn12 [Compound 42, 3-(3-Butylaminomethyl-2-methyl-imidazo[1,2-a]pyridin-7-yl)-N-hydroxy-acrylamide]	0.16	1.5
CCN(CC)CCNCc1c(C(C)(C)C)nc2cc(/C=C/C(=O)NO)ccn12 [Compound 43, 3-{2-tert-Butyl-3-[(2-diethylamino-ethylamino)-methyl]-imidazo[1,2-a]pyridin-7-yl}-N-hydroxy-acrylamide]	2	34
CCN(CCN(C)C)Cc1c(-c2ccccc2)nc2cc(/C=C/C(=O)NO)ccn12 [Compound 44, 3-(3-{[(2-Dimethylamino-ethyl)-ethyl-amino]-methyl}-2-phenyl-imidazo[1,2-a]pyridin-7-yl)-N-hydroxy-acrylamide]	2.9	32
O=C(/C=C/c1ccn2c(CNCC(F)(F)F)c(-c3ccccc3)nc2c1)NO [Compound 46, N-Hydroxy-3-{2-phenyl-3-[(2,2,2-trifluoro-ethylamino)-methyl]-imidazo[1,2-a]pyridin-7-yl}-acrylamide]	> 10	11
CCN(CC)CCNCc1c(-c2ccccc2)nc2cc(/C=C/C(=O)NO)ccn12 [Compound 47, 3-{3-[(2-Diethylamino-ethylamino)-methyl]-2-phenyl-imidazo[1,2a]pyridin-7-yl}-N-hydroxy-acrylamide]	0.65	30
CCCN(CCO)Cc1c(-c2ccccc2)nc2cc(/C=C/C(=O)NO)ccn12 [Compound 48, N-Hydroxy-3-(3-{[(2-hydroxy-ethyl)-propyl-amino]-methyl}-2-phenyl-imidazo[1,2-a]pyridin-7-yl)-acrylamide]	1	9.2
CCCN(C)Cc1c(C(C)(C)C)nc2cc(/C=C/C(=O)NO)ccn12 [Compound 50, 3-{2-tert-Butyl-3-[(methyl-propyl-amino)-methyl]-imidazo[1,2-a]pyridin-7-yl}-N-hydroxy-acrylamide]	0.52	2.4
CCN(CC)Cc1c(-c2ccccc2)nc2cc(/C=C/C(=O)NO)ccn12 [Compound 51, 3-(3-Diethylaminomethyl-2-phenyl-imidazo[1,2-a]pyridin-7-yl)-N-hydroxy-acrylamide]	0.2	1.1
CCCN(CC)Cc1c(-c2ccccc2)nc2cc(/C=C/C(=O)NO)ccn12 [Compound 52, 3-{3-[(Ethyl-propyl-amino)-methyl]-2-phenyl-imidazo[1,2-a]pyridin-7-yl}-N-hydroxy-acrylamide]	0.24	1.2
